Test results reported in publication PMC9481538, “The interaction between LC8 and LCA5 reveals a novel oligomerization function of LC8 in the ciliary-centrosome system” (Scientific Reports, 2022).
One block for each substance: values may come before it. Where no end group is shown, it is not given here.

Assays:
[1] = target: T1, LC8 (Homo sapiens, UniProt Q96FJ2); settings: literature, ref (6)-(10) of supplement, cited from earlier work
T1 construct: 6xHis (N); made in house; host or cells: E. coli BL21 (DE3) Rosetta
Text: According to the standard model of LC8 interactions, the dimeric interface of LC8 presents two interaction sites for partners which also form dimers, implying a 1:1 stoichiometry. Partners with two adjacent binding motifs, like ANA2, follow a 1:2 stoichiometry by binding two LC8[18]. Intriguingly, we observed a 2:1 LCA5:LC8 stoichiometry for the ΔCQS and the ΔVQT mutants, which means that one LC8 dimer binds four LCA5 chains (Supplementary Table S1). A reasonable interpretation is that the native LCA5 is dimeric and thus a pair of LCA5 dimers bind to one dimeric LC8. In such a situation, one i ... || page 10: Composition of complexes Number of LC8 Number of Ratio of LCA5 LC8 binding monomeric binding monomeric LC8 in monomers to LC8 Gene name sites partners in complex complex monomers SWA (6) 1 2 2 1:1 DYNC1I1 (7) 1 2 2 1:1 WDR34-WDR60 3 1+1 6 1:3 (8) ANA2 (9) 2 2 4 1:2 ASCIZ (10) 11 2 22 1:11 sLCA5-WT 2 4 4 1:1 sLCA5-single 1 4 2 2:1 mutants Supplementary Table S1. Stoichiometries of various LC8 binding partners in complex with LC8. Known LC8 binding partners according to literature data always form dimers upon LC8 binding. The stoichiometry is basically 1:1 in case of one LC8 binding sit ...

[2] = test system: GST-fused LC8; assay: GST pull-down of LC8 and sLCA5; format: binding; settings: GST-LC8 bait, MBP-, 6x-His-fused sLCA5 prey, PBS, 1 mM DTT, room temperature; result in words
Experimental: For the pull-down experiments, GST-fused LC8 was used as bait, and MBP-, 6x-His-fused LCA5 variants as prey. For controls, GST and MBP were used. Proteins were expressed in 100 ml cultures of E. coli BL21 (DE3) Rosetta cells as described above. Cells were harvested, resuspended in 5 ml PBS supplemented with 1 mg/ml lysozyme and 1 mM DTT, sonicated and clarified by centrifugation. 20 μl of Glutathione Sepharose 4B (Macherey–Nagel) (75%) resin was used for each experiment. Baits were incubated with the resin for 1 h at room temperature, then washed with PBS supplemented with 1 mM DTT. Prey proteins were added and incubated for one hour. The beads were washed and eluted by boiling in a 2 × SDS sample buffer and analyzed in tricine SDS page according to the protocol of Schagger et al[43].

[3] = target: T1, LC8; assay: direct fluorescence polarization titration of labeled BMF peptide with LC8; format: binding; settings: 50 nM FITC-labeled BMF, PBS, 2 mM TCEP, 0.05% Brij, 25 °C
Experimental: Fluorescence polarization experiments were carried out at 25 °C in PBS supplemented by 2 mM TCEP and 0.05% Brij using a Synergy H4 (BioTek Instruments) plate reader. N-terminally fluorescein 5-isothiocyanate (FITC) labeled, known binding peptide of LC8, BMF (TSQEDKATQTL) was used as a reporter peptide to form LC8-BMF complex and LCA5 was applied to compete the BMF peptide. Briefly, 50 nM labeled BMF peptide was mixed with LC8 in a concentration to achieve 80% saturation, determined by direct titration (12 μM at 80% saturation). Subsequently, the above-mentioned complex was titrated with a two-fold dilution series of competitor LCA5 peptide (DLCTKGVQTME) (start at 500 μM) and the decrease of polarization was recorded. To determine the Kd of the LCA5-peptide-LC8 complex, first the Kd of the BMF-LC8 complex was calculated. The polarization signal recorded at direct titration of BMF peptide with LC8 was plotted against the concentration of LC8. Then the Kd of the BMF-LC8 complex was calculated by the fitting of a direct binding equation in Origin 8. To determinate the Kd of the competitor peptide, the measured polarization was plotted against the concentration of LCA5 peptide in the competitive titration and the data was fitted by the competitive binding equation in Origin 8 where Kd of the BMF-LC8 complex was one of the parameters of the competitive equation. […]

[4] = target: T1, LC8; assay: isothermal titration calorimetry, LCA5 peptide injected to LC8; format: binding; settings: MicroCal PEAQ-ITC, PBS pH 7.4, 1 mM TCEP, 25 °C; peptide injected 18 x 2 μl into LC8
Experimental: (§1) LC8 and MBP-fused LCA5 constructs were prepared in PBS supplemented with 1 mM TCEP. Before measurement, protein samples were dialyzed overnight in PBS pH 7.4 (Orange Scientific, OrDial D14 membrane). Peptides were diluted from stock with the buffer used for dialysis. The concentration of samples was determined based on absorbance at 280 nm in the case of proteins, and 205 nm for the peptide. Experiments were performed using MicroCal PEAQ-ITC (Malvern Panalytical), LCA5 peptides were measured at 25 °C, proteins were analyzed at 37 °C. Lebercilin peptide was injected into the cell 18 times 2 μl volumes, with 5 min timing between injections. In case of the protein, LCA5 was placed in the sample cell, and LC8 was injected during 37 injections, 1 μl each. The results were evaluated using MicroCal PEAQ-ITC Analysis Software.

[5] = target: T1, LC8; assay: LC8 binding of the second (CQS) motif at the peptide level; settings: residues 317–324 of LCA5; method not stated; result in words
Experimental: as §1, with “In case of the protein, LCA5 was placed in the sample cell, and LC8 was injected during 37 injections, 1 μl each.” left out
Fluorescence polarization experiments were carried out at 25 °C in PBS supplemented by 2 mM TCEP and 0.05% Brij using a Synergy H4 (BioTek Instruments) plate reader. […] Briefly, 50 nM labeled BMF peptide was mixed with LC8 in a concentration to achieve 80% saturation, determined by direct titration (12 μM at 80% saturation). Subsequently, the above-mentioned complex was titrated with a two-fold dilution series of competitor LCA5 peptide (DLCTKGVQTME) (start at 500 μM) and the decrease of polarization was recorded. To determine the Kd of the LCA5-peptide-LC8 complex, first the Kd of the BMF-LC8 complex was calculated. […]

T1 sequence (Q96FJ2 whole entry): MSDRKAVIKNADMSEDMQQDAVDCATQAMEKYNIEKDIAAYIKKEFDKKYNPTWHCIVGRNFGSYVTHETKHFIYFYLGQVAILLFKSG

Substance: WDR34-WDR60: known LC8 binding partner, literature
Number of monomeric LC8 in complex ([1]; composition of complexes): 6
Number of monomeric binding partners in complex ([1]; composition of complexes): 1+1
LC8 binding sites [1]: 3

Substance: CAAAAAAM: sLCA5 with further alanine mutations introduced into the VQT motif
interaction with LC8 (GST pull-down) [2]: persisted despite the mutations

LC8 concentration at 80% saturation of labeled BMF peptide [3]: 12 µM
Substance: TSQEDKATQTL [BMF]

Kd [4]: 2.6 µM
Substance: DLCTKGVQTME [LCA5 peptide]

Substance: KNAACQSD
binding of the second motif to LC8 at the peptide level [5]: could not be verified at the peptide level
